Here are results for 5 compounds from patent EP1579856A1 (LABORATOIRES BESINS INTERNATIONAL, priority 2004, dated 2005).

Like-named read-outs stand apart in the source and are kept apart here. Marks after values point to notes of the source that are not given here. Bounds are passed on as bounds.

What is called half-life is the time needed for the level to fall by half in the phase considered. The low end stands for fast loss, the high end for slow loss.

Data set [1] is described as follows: Example 1 follow-up study: radioactivity and metabolites in blood.
Experimental: (§1) The patients received [^3H]-labeled drug applied directly on the affected breasts at specified intervals ranging from 12 hours to 7 days before surgery to excise diseased tissue. Breast tissue from three regions: the tumor, tissue immediately surrounding the tumor, and normal tissue, was excised and immediately frozen in liquid nitrogen. Additionally, plasma and urine samples were obtained at scheduled intervals and frozen until analysis.
The nature of data set [2]: clinical. Details: species or system women. As to conditions: in vivo.
Experimental: At the end of a menstrual cycle, each patient received a single dose, after which serial blood samples were collected at 0, 0.5, 1, 1.5, 2, 3, 4, 6, 12, 18, 24, 36, 48, and 72 hours.
The conditions of data set [3]: in vivo. On the procedure:
Each participant applied the gel daily for the duration of two menstrual cycles.
On the first day of the following menstruation, treatment, which consisted of daily application of the gel over two menstrual cycles, began. Blood samples were collected 24 hours following the morning application of gel on days 7, 20 and 25 of the first and second cycles. On the last day of administration, day 25 of the second menstrual cycle, serial blood samples were collected prior to application and at 0.5, 1, 1.5, 2, 3, 4, 6, 12, 18, 24, 36, 48, and 72 hours after application of the gel.

For data set [4] the following is noted: in vivo. This is another data set of the same source.
Experimental: as §1
The subject of data set [5] is estrogen receptors. As to conditions: more affinity than tamoxifen; cited from earlier work.
Data set [6] deals with T1, estrone sulphatase (Homo sapiens, UniProt P08842).
T1 construct: estrone sulphatase activity in mammary cancer cell lines; endogenous in cells
T1 sequence (P08842 22-583): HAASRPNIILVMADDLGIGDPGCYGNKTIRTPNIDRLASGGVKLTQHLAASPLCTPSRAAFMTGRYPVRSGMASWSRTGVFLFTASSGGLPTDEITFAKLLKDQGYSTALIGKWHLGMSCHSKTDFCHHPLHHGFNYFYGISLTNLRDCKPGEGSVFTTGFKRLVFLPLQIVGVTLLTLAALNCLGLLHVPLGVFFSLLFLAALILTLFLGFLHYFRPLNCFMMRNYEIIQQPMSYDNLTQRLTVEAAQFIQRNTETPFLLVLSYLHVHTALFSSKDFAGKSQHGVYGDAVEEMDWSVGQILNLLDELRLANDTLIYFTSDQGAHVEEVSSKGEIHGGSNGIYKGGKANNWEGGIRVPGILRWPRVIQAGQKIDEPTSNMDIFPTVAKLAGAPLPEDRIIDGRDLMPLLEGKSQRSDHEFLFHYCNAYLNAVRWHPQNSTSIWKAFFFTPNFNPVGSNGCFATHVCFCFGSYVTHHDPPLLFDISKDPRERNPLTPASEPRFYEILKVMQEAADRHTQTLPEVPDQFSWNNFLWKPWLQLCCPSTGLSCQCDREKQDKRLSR
The following applies: mammary cancer cell lines; cited from earlier work.

In data set [7] the test system is rat liver. As to conditions: in vivo; cited from earlier work.
The conditions of data set [8]: in vivo. The source holds these as a separate data set.
Experimental: as §1
For data set [9] the following is noted: percutaneous dose of 1 mg/breast/day; cited from earlier work.
For data set [10] the following is noted: in vivo. This is another data set of the same source.
Experimental: as §1
The conditions of data set [11]: Group 2: 4-OHT gel (20 mg/100 g) 0.5 mg/day, both breasts, 3-4 weeks; n=5; cited from earlier work.
For data set [12] the following is noted: cited from earlier work.
The test system of data set [13] is p53(-) normal human mammary epithelial cells. The following applies: cited from earlier work.
The conditions of data set [14]: cited from earlier work. The source holds these as a separate data set.
Data set [15] is described as follows: Example 1 follow-up study: radioactivity and metabolites in breast tissue after percutaneous application. The following applies: for % Metabolites in Breast Tissue: breast tumor tissue.
Experimental: as §1
Data set [16] has as its system normal human epithelial breast cells. The following applies: more than Z-tamoxifen; cited from earlier work.
[17] abbreviates: oral tamoxifen group, 20 mg/day.

Regarding `CC/C(=C(\c1ccccc1)c1ccc(OCCN(C)C)cc1)c1ccccc1` [[^3H]-tamoxifen, reference compound], the “plateau of radioactivity in blood” value in data set [1] (percutaneous application) was found to be 2 days.
As to `CCC(=C(c1ccc(O)cc1)c1ccc(OCCN(C)C)cc1)c1ccccc1` [4-hydroxy tamoxifen, 1-[4-(2-N-dimethylaminoethoxy)phenyl]-1-(4-hydroxyphenyl)-2-phenylbut-1-ene], the “t1/2 (Range)” value in data set [2] (human, topical or ocular) was “(49 - 101) hr”. In [2] (human, topical or ocular, t1/2 (Range)), this compound gave a half-life of 58 to 118 h. Besides, in [2], the “patients with detectable plasma concentrations (>5 pg/mL)” value was 6 of 12. The “laboratory or clinical evidence of systemic effects” value in data set [3] is on record as “no detectable”. Also, the “% of radioactivity in blood represented by” value in data set [4] came out at 68%. The “affinity for estrogen receptors” value in data set [5] is 100 fold. Besides, the “inhibitory effect on estrone sulphatase activity” value in data set [6] is listed as “significant inhibitory effect”. Further, the rat liver carcinogen entry in data set [7] was “not”. Also, in data set [8], the “distribution within breast tissue” value is “concentrated predominantly in the cytosolic and nuclear fractions of breast tissue”; the “metabolism in intracellular sites of breast tissue” value was “remained unmetabolized except for limited isomerization from the Z to the E form”; the “retention in the breast” value was “approximately 4 days”. Besides, the “4-hydroxy tamoxifen concentration in breast tissue exceeds normal estradiol concentrations in breast tissue by a factor of” value in [9] is recorded as 4. In data set [10], the peak urinary elimination result is recorded as “later time”. In [11], the “Mean ± SD 4-hydroxy tamoxifen (Range), Plasma Concentrations, Day Pre-Surgery” value was 0 (0 - 0)^a pg/mL.
On to `CC/C(=C(\c1ccccc1)c1ccc(OCCN(C)C)cc1)c1ccccc1` [tamoxifen], for which the “decrease of risk of benign breast disease” value in data set [12] (cyst) was 34%; in data set [12] (duct ectasia), 28%; in data set [12] (fibrocystic disease), 33%; in [12] (hyperplasia), 40%. Besides, in data set [12] (overall), the “reduces the risk of developing benign breast disease” value is 28%. Further, the “reduction of the need for breast biopsies” value in [12] (women under 50) is given as 41%. In data set [13], the initiates apoptosis result is on record as “initiates apoptosis”. Further, in data set [14] (Group 2 (0.5 mg/day gel): seventh day of treatment, Group 1 (oral tamoxifen): fifth day of treatment), the “side effects reported by one person” value is “hot flashes and mild vaginitis”. The “anti-thrombin III and fibrinogen, pre- versus post treatment” value in data set [14] (setting [17]) is listed as “statistically significant decrease”. For the same compound, the “platelet and lymphocyte counts, pre- versus post treatment” value in data set [14] (setting [17]) is reported as “statistically significant increase”. For the same compound, the “inhibitory effect on estrone sulphatase activity” value in data set [6] is listed as “little or no effect”. For the same compound, the rat liver carcinogen result in [7] is reported as “potent rat liver carcinogen”. The figures for the “% Metabolites in Breast Tissue” value in data set [15] (Day 4 after percutaneous administration of Z-[3H]-4-hydroxy tamoxifen to the affected breast) and in [15] (Day 7 after percutaneous administration of Z-[3H]-4-hydroxy tamoxifen to the affected breast) were below 1% and 2%, respectively. Besides, in data set [15] (percutaneous application of [3H]-labeled drug), the “retention in the breast” value was “shorter and far weaker”.
For `CCC(=C(c1ccc(O)cc1)c1ccc(OCCNC)cc1)c1ccccc1` [N-Desmethyl-4-Hydroxy Tamoxifen], the “% of radioactivity in blood represented by” value in data set [1] (24 hours after percutaneous administration of [3H]-4-hydroxy tamoxifen) is reported as 18%.
In the case of `CC/C(=C(\c1ccc(O)cc1)c1ccc(OCCN(C)C)cc1)c1ccccc1` [Z-4-hydroxy tamoxifen], the “inhibits the growth in culture of normal human epithelial breast cells” value in [16] is given as 100 fold.
